Experiment [1] has as its target P99 AmpC (Enterobacter cloacae, UniProt P05364). The experiment can be described thus: biochemical.
The target of experiment [2] is T1, OXA-48 (Klebsiella pneumoniae, UniProt Q6XEC0).
T1 construct: made in house; host or cells: E. coli
The experiment in a line: biochemical.

In experiment [3] the target is T2, AmpC P. aeruginosa (Pseudomonas aeruginosa, UniProt P24735).
T2 construct: made in house; host or cells: E. coli
The experiment in a line: biochemical.

The target of experiment [4] is T3, KPC-2 (Klebsiella pneumoniae, UniProt Q9F663).
T3 construct: made in house; host or cells: E. coli
The experiment in a line: biochemical.

Experiment [5] has as its target T4, TEM-1 (Escherichia coli, UniProt P62593).
T4 construct: made in house; host or cells: E. coli
The experiment in a line: β-lactamase inhibitory activity, nitrocefin hydrolysis. Type of experiment: biochemical.

Experiment [6] concerns the target T5, CTX-M-15 (Escherichia coli, UniProt Q9EXV5).
T5 construct: made in house; host or cells: E. coli
The experiment in a line: biochemical.

For experiment [7], the target named is T6, OXA-15 (Pseudomonas aeruginosa, UniProt Q51574).
T6 construct: made in house; host or cells: E. coli
The experiment can be described thus: biochemical.

The target of experiment [8] is T7, SHV-1 (Klebsiella pneumoniae, UniProt P0AD64).
T7 construct: made in house; host or cells: E. coli
The experiment in a line: biochemical.

For experiment [9], the target named is T8, OXA-11 (Pseudomonas aeruginosa, UniProt Q06778).
T8 construct: made in house; host or cells: E. coli
The experiment can be described thus: biochemical.

In experiment [10] the target is T9, OXA-1 (Escherichia coli, UniProt P13661).
T9 construct: made in house; host or cells: E. coli
The experiment in a line: biochemical.

Experiment [11] concerns E. coli ECO 190317. The experiment can be described thus: MIC of compounds alone, broth microdilution (CLSI). The conditions noted are these: Escherichia coli, ECO190317, read-out: MIC alone.
Where [12] appears, read: class (D), nitrocefin 200 μM, 30 min pre-incubation, room temperature, read-out: BLA IC50 OXA-48.
The mark [13] stands for this setting: class (A), nitrocefin 200 μM, 30 min pre-incubation, room temperature, read-out: BLA IC50 KPC-2.
The mark [14] stands for this setting: class (A), nitrocefin 200 μM, 30 min pre-incubation, room temperature, read-out: BLA IC50 TEM-1.
The mark [15] stands for this setting: class (A), nitrocefin 200 μM, 30 min pre-incubation, room temperature, read-out: BLA IC50 CTX-M-15.
Setting [16] is: class (D), nitrocefin 200 μM, 30 min pre-incubation, room temperature, read-out: BLA IC50 OXA-1.
The mark [17] stands for this setting: class (C), nitrocefin 200 μM, 30 min pre-incubation, room temperature, read-out: BLA IC50 AmpC (PAE).

Counter-ions that a name gives are not always drawn. Like-named read-outs stand apart in the source and are kept apart here.

As for `CCOC(=O)[C@@H]1c2c(sc3ccccc23)[C@@H]2CN1C(=O)N2OS(=O)(=O)[O-].[Na+]` (relative stereo) [Example 2, sulfate], the 50% inhibitory concentration (IC50) was found to be 0.51 nM in experiment [1]; 0.66 nM in experiment [2] (setting [12]); 2.5 nM in experiment [3]; 0.94 nM in [4] (setting [13]); 0.22 nM in experiment [5] (setting [14]); 2.6 nM in experiment [6] (setting [15]). Besides, the IC50 in [7] was 830 nM; in [8] it was 0.43 nM; in experiment [9], 2.2 nM; in experiment [10] (setting [16]), 37 nM.

For `CCOC(=O)[C@@H]1c2c(sc3ccccc23)[C@@H]2CN1C(=O)N2OS(=O)(=O)[O-].[Na+]` (relative stereo) [Example 2], in experiment [11], the MIC was over 32 µg/mL.

Take `NC(=O)[C@@H]1c2c(sc3ccccc23)[C@@H]2CN1C(=O)N2OS(=O)(=O)[O-].[Na+]` (relative stereo) [Example 3, sulfate]: the concentration for half-maximal inhibition (IC50) stood at 4.5 nM in experiment [1]; 4.8 nM in experiment [2] (setting [12]); 62 nM in experiment [3] (setting [17]); 9.3 nM in experiment [4] (setting [13]); 1.3 nM in [5] (setting [14]); 2.5 nM in experiment [6] (setting [15]). The IC50 in experiment [7] was found to be 7100 nM; in experiment [8] it was 2.2 nM; in [9] it was 31 nM; in experiment [10] (setting [16]) it was 190 nM.

With `NC(=O)[C@@H]1c2c(sc3ccccc23)[C@@H]2CN1C(=O)N2OS(=O)(=O)[O-].[Na+]` (relative stereo) [Example 3], in [11], the MIC worked out at 8 µg/mL.

As for `CCOC(=O)[C@@H]1c2c(n(C)c3ccccc23)[C@@H]2CN1C(=O)N2OS(=O)(=O)[O-].[Na+]` (relative stereo) [Example 6, sulfate], the half-maximal inhibitory concentration (IC50) was 2 nM in experiment [1]; 4.6 nM in [2] (setting [12]); 3.6 nM in [3] (setting [17]); 4.2 nM in experiment [4] (setting [13]); 0.2 nM in experiment [5] (setting [14]); 1.5 nM in experiment [6] (setting [15]). Also, the half-maximal inhibitory concentration (IC50) amounted to 6500 nM in experiment [7], 0.25 nM in experiment [8], 160 nM in experiment [9] and 1300 nM in [10] (setting [16]).

As to `CCOC(=O)[C@@H]1c2c(n(C)c3ccccc23)[C@@H]2CN1C(=O)N2OS(=O)(=O)[O-].[Na+]` (relative stereo) [Example 6], the MIC in experiment [11] was over 32 µg/mL.

Consider `CC(C)(O/N=C(\C(=O)N[C@@H]1C(=O)N2C(C(=O)[O-])=C(C[n+]3ccccc3)CS[C@H]12)c1csc(N)n1)C(=O)O` [CAZ, Ceftazidime, reference compound], for which the MIC in [11] is 128 µg/mL.

`O=C1N2Cc3c(sc4ccccc34)C(C2)N1OS(=O)(=O)[O-].[Na+]` (stereo not drawn) [Example 1, Sodium (2,5-methano-3-oxo-1,5-dihydrobenzothiopheno[2,3-e][1,3]diazepin-4-yl) sulfate]: the half-inhibitory concentration (IC50) is 17 nM in experiment [1]; 1.1 nM in experiment [2] (setting [12]); 8.8 nM in [3]; 26 nM in experiment [4] (setting [13]); 0.65 nM in [5] (setting [14]); 1 nM in [6] (setting [15]). In addition, the half-maximal inhibitory concentration (IC50) in experiment [7] came out at 3400 nM; in [8], 4.1 nM; in experiment [9], 41 nM; in [10] (setting [16]), 120 nM. In [11], the MIC stood at 16 µg/mL.

`O=C1N2Cc3nc4ccccc4cc3C(C2)N1OS(=O)(=O)[O-].[Na+]` (stereo not drawn) [Example 4, sodium 1,4-methano-3-oxo-1,5-dihydro-[1,3]diazepino[5,6-b]quinolin-2-yl) sulfate]: the IC50 is 120 nM in [1]; 1.5 nM in [2] (setting [12]); 2800 nM in [3] (setting [17]); 370 nM in [4] (setting [13]); 36 nM in experiment [5] (setting [14]); 9.9 nM in experiment [6] (setting [15]). Besides, the 50% inhibitory concentration (IC50) came out at 13000 nM in experiment [7], 150 nM in [8], 590 nM in experiment [9] and 4100 nM in [10] (setting [16]).

For `O=C1N2Cc3nc4ccccc4cc3C(C2)N1OS(=O)(=O)[O-].[Na+]` (stereo not drawn) [Example 4], the MIC in experiment [11] was 8 µg/mL.

Consider `O=C1N2Cc3nc4cnccc4cc3C(C2)N1OS(=O)(=O)[O-].[Na+]` (stereo not drawn) [Example 5, sodium (1,4-methano-3-oxo-1,5-dihydro-[1,3]diazepino[5,6-b][1,7]naphthyridin-2-yl) sulfate], for which the IC50 came out at 100 nM in experiment [1]; 1 nM in [2] (setting [12]); 3600 nM in experiment [3] (setting [17]); 160 nM in [4] (setting [13]); 14 nM in experiment [5] (setting [14]); 14 nM in [6] (setting [15]). The IC50 in [7] was determined as 1800 nM; in experiment [8], 77 nM; in [9], 190 nM; in experiment [10] (setting [16]), 1700 nM. Also, the MIC in experiment [11] is 4 µg/mL.

`CCN(CC)C(=O)N1CCc2sc3c(c2C1)CN1CC3N(OS(=O)(=O)O)C1=O` (stereo not drawn) [Example 7, sodium [9-(diethylcarbamoyl)-2,5-methano-3-oxo-5,7,8,10-tetrahydro-1H-pyrido[3,4]thieno[1,3-d][1,3]diazepin-4-yl] sulfate]: the IC50 in experiment [2] (setting [12]) amounted to 6.8 nM; in experiment [3] (setting [17]), 550 nM; in experiment [4] (setting [13]), 26 nM; in experiment [5], 43 nM; in [6] (setting [15]), 1.3 nM; in experiment [7] it was 14000 nM. Also, the figures for the IC50 in experiment [8], in experiment [9] and in experiment [10] (setting [16]) were 13 nM, 110 nM and 5100 nM, respectively. Further, the MIC in experiment [11] is over 32 µg/mL.

Turning to `O=C1N2Cc3c(sc4c3CNCC4)C(C2)N1OS(=O)(=O)O` (stereo not drawn) [Example 8, (2,5-methano-3-oxo-1,5,7,8,9,10-hexahydropyrido[2,3]thieno[2,4-d][1,3]diazepin-4-yl) hydrogen Sulfate], the IC50 is 1600 nM in [1]; 18 nM in experiment [2] (setting [12]); 8600 nM in experiment [3] (setting [17]); 1300 nM in experiment [4] (setting [13]); 9.6 nM in experiment [5] (setting [14]); 6.1 nM in experiment [6] (setting [15]). Also, the half-maximal inhibitory concentration (IC50) in [7] worked out at 30000 nM; in experiment [8], 26 nM; in experiment [9], 840 nM; in experiment [10] (setting [16]), 15000 nM. The MIC in [11] worked out at 1 µg/mL.

Consider `Cn1c2c(c3scnc31)C1CN(C2)C(=O)N1OS(=O)(=O)O` (stereo not drawn) [Example 9, sodium (6,9-methano-4-methyl-7-oxo-5,9-dihydrothiazolo[3,4]pyrrolo[1,3-d][1,3]diazepin-8-yl) sulfate], for which the IC50 in experiment [1] amounted to 120 nM; in experiment [2], 1.2 nM; in [3], 590 nM; in experiment [4], 26 nM; in [5], 0.49 nM; in [6], 1.1 nM. The 50% inhibitory concentration (IC50) in experiment [7] was determined as 940 nM; in experiment [8], 0.57 nM; in experiment [9] it was 62 nM; in [10] it was 290 nM. For the same molecule, in experiment [11], the MIC is over 32 µg/mL.
